Experimental findings from PubChem BioAssay AID192 (DTP/NCI, 2004) are described below.

Structures are written as SMILES. Several values for one entry are separate records, joined by “and”; a condition that tells them apart may be missing. Identical values can stand only once. Inconclusive results and toxic doses are left out.

The test concerns BDF1 mice, B16 melanoma ip, median survival T/C. Nature of the test: NCI In Vivo Anticancer Drug Screen. Data for tumor model B16 Melanoma (intraperitoneal) in B6D2F1 (BDF1) mice. As to conditions: endpoint: median survival time, higher = longer survival. Put shortly:
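Each result divides a survival or tumor-size measurement in the compound-treated group by the same measurement in the vehicle group.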

[1] abbreviates: dose: 100.0 mg/kg/injection, schedule: Q01DX009 (ip), vehicle: Klucel (hydroxypropylcellulose) (HPC).
The mark [2] stands for this setting: dose: 200.0 mg/kg/injection, schedule: Q01DX009 (ip), vehicle: Klucel (hydroxypropylcellulose) (HPC).
The mark [3] stands for this setting: dose: 50.0 mg/kg/injection, schedule: Q01DX009 (ip), vehicle: Klucel (hydroxypropylcellulose) (HPC).
Where [4] appears, read: dose: 25.0 mg/kg/injection, schedule: Q01DX009 (ip), vehicle: Klucel (hydroxypropylcellulose) (HPC).
Where [5] appears, read: dose: 25.0 mg/kg/injection, schedule: Q01DX009 (ip), vehicle: water.

As for `O=C1C=C(SCCO)C(=O)c2ccccc21`, the T/C reads like this: (dose: 13.0 micrograms/kg/injection, schedule: Q01DX009 (ip), vehicle: saline with Tween-80) 100 % of control; (dose: 18.7 micrograms/kg/injection, schedule: Q01DX009 (ip), vehicle: saline with Tween-80) 94 % of control; (dose: 20.0 micrograms/kg/injection, schedule: Q01DX009 (ip), vehicle: saline with Tween-80) 92 % of control; (dose: 30.0 micrograms/kg/injection, schedule: Q01DX009 (ip), vehicle: saline with Tween-80) 95 % of control; (dose: 45.0 micrograms/kg/injection, schedule: Q01DX009 (ip), vehicle: saline with Tween-80) 117 % of control; (dose: 90.0 micrograms/kg/injection, schedule: Q01DX009 (ip), vehicle: saline with Tween-80) 107 % of control.
Turning to `CC(C)N1CSC(=S)N(Cc2ccccc2)C1`, the T/C is, setting by setting: under setting [1], 96 % of control; under setting [2], 105 % of control.
Consider `O=c1oc(/C=C/c2ccccc2)nc2cc(Cl)ccc12`, for which, under setting [1], the T/C is 109 % of control.
Take `Cc1cc2c(cc1C)NC(C)CC(=O)N2` (configuration not stated): the T/C under setting [3] is 106 % of control, the T/C under setting [1] was 108 % of control and the T/C under setting [2] is 106 % of control.
Turning to `Cc1c2cc[n+](C)c(C)c2cc2c1[nH]c1ccccc12`, the T/C (dose: 10.0 mg/kg/injection, schedule: Q04DX003 (ip), vehicle: water) is 95 % of control; the T/C (dose: 20.0 mg/kg/injection, schedule: Q04DX003 (ip), vehicle: water) was 92 % of control; the T/C (dose: 40.0 mg/kg/injection, schedule: Q04DX003 (ip), vehicle: water) was 94 % of control.
On to `CC1(CC(C)(C)C2CCCCC2)OCCO1`, for which the T/C by setting is: (dose: 12.5 mg/kg/injection, schedule: Q01DX009 (ip), vehicle: other) 100 % of control; (dose: 25.0 mg/kg/injection, schedule: Q01DX009 (ip), vehicle: other) 93 % of control; (dose: 50.0 mg/kg/injection, schedule: Q01DX009 (ip), vehicle: other) 90 % of control.
As to `CCN(CC)CCCC#CCN1CCCC1`, the T/C was 100 % of control under setting [4], 93 % of control under setting [3] and 93 % of control under setting [1].
As to `CC(=O)ON1C(=O)C=CC1=O`, the T/C is 92 % of control (dose: 3.13 mg/kg/injection, schedule: Q01DX009 (ip), vehicle: water); 103 % of control (dose: 6.25 mg/kg/injection, schedule: Q01DX009 (ip), vehicle: water); 106 % of control (dose: 12.5 mg/kg/injection, schedule: Q01DX009 (ip), vehicle: water); 87 % of control under setting [5].
Regarding `O=[N+]([O-])c1cccc2c(S(=O)(=O)O)cccc12`, the T/C by setting is: (dose: 50.0 mg/kg/injection, schedule: Q01DX009 (ip), vehicle: saline) 113 % of control; (dose: 100.0 mg/kg/injection, schedule: Q01DX009 (ip), vehicle: saline) 110 % of control; (dose: 200.0 mg/kg/injection, schedule: Q01DX009 (ip), vehicle: saline) 91 % of control.
For `CC(=O)NNC(=O)c1ccccn1`, the T/C is 87 % of control (dose: 25.0 mg/kg/injection, schedule: Q01DX009 (ip), vehicle: saline with Tween-80); 93 % of control and 116 % of control under setting [5]; 110 % of control and 113 % of control (dose: 50.0 mg/kg/injection, schedule: Q01DX009 (ip), vehicle: water); 93 % of control and 100 % of control (dose: 100.0 mg/kg/injection, schedule: Q01DX009 (ip), vehicle: water); 89 % of control (dose: 200.0 mg/kg/injection, schedule: Q01DX009 (ip), vehicle: saline with Tween-80).
Turning to `CC[C@@]1(O)C[C@H](OC2CC(N(C)C)C(OC3CC(O)C(O[C@@H]4O[C@@H](C)C(=O)C=C4N)C(C)O3)C(C)O2)c2c(cc3c(c2O)C(=O)c2c(O)ccc(O)c2C3=O)[C@H]1C(=O)OC` (some centres not stated), the T/C is 113 % of control (dose: 0.03 mg/kg/injection, schedule: Q01DX001 (ip), vehicle: saline); 109 % of control (dose: 0.05 mg/kg/injection, schedule: Q01DX001 (ip), vehicle: saline); 178 % of control (dose: 0.38 mg/kg/injection, schedule: Q01DX009 (ip), vehicle: saline); 167 % of control (dose: 0.75 mg/kg/injection, schedule: Q01DX009 (ip), vehicle: saline); 223 % of control (dose: 1.5 mg/kg/injection, schedule: Q01DX009 (ip), vehicle: saline); 159 % of control (dose: 1.6 mg/kg/injection, schedule: Q01DX001 (ip), vehicle: saline). The T/C reads like this: (dose: 3.2 mg/kg/injection, schedule: Q01DX001 (ip), vehicle: saline) 114 % of control; (dose: 1.0 micrograms/kg/injection, schedule: Q01DX005 (ip), vehicle: Klucel (hydroxypropylcellulose) (HPC)) 110 % of control; (dose: 2.0 micrograms/kg/injection, schedule: Q01DX005 (ip), vehicle: Klucel (hydroxypropylcellulose) (HPC)) 100 % of control; (dose: 4.0 micrograms/kg/injection, schedule: Q01DX005 (ip), vehicle: Klucel (hydroxypropylcellulose) (HPC)) 107 % of control; (dose: 8.0 micrograms/kg/injection, schedule: Q01DX005 (ip), vehicle: Klucel (hydroxypropylcellulose) (HPC)) 103 % of control.
Turning to `Cc1cc(Cl)ccc1NC(=O)Nc1ccc(Cl)c(Cl)c1`, the T/C runs as follows: (dose: 50.0 mg/kg/injection, schedule: Q04DX003 (ip), vehicle: Klucel (hydroxypropylcellulose) (HPC)) 90 % of control; (dose: 100.0 mg/kg/injection, schedule: Q04DX003 (ip), vehicle: Klucel (hydroxypropylcellulose) (HPC)) 95 % of control.
Take `CNC(=O)Oc1coc(CCl)cc1=O`: the T/C (dose: 12.0 mg/kg/injection, schedule: Q01DX009 (ip), vehicle: Klucel (hydroxypropylcellulose) (HPC)) is 93 % of control; the T/C (dose: 18.0 mg/kg/injection, schedule: Q01DX009 (ip), vehicle: Klucel (hydroxypropylcellulose) (HPC)) was 96 % of control; the T/C (dose: 27.0 mg/kg/injection, schedule: Q01DX009 (ip), vehicle: Klucel (hydroxypropylcellulose) (HPC)) was 96 % of control; the T/C (dose: 40.0 mg/kg/injection, schedule: Q01DX009 (ip), vehicle: Klucel (hydroxypropylcellulose) (HPC)) was 106 % of control.
In the case of `c1cc[c]([Pb]([S]c2nc3ccccc3[nH]2)([c]2ccccc2)[c]2ccccc2)cc1`, the T/C (dose: 0.75 mg/kg/injection, schedule: Q01DX009 (ip), vehicle: Klucel (hydroxypropylcellulose) (HPC)) is 100 % of control and the T/C (dose: 1.5 mg/kg/injection, schedule: Q01DX009 (ip), vehicle: Klucel (hydroxypropylcellulose) (HPC)) was 94 % of control.
As to `CCC(Br)C(=O)Nc1c(C)cccc1Cl` (configuration not stated), the T/C was 106 % of control under setting [4], 93 % of control under setting [3] and 93 % of control under setting [1].
As to `O=C(CCBr)N1CCN(C(=O)CCBr)CC1`, the T/C is 100 % of control (dose: 2.5 mg/kg/injection, schedule: Q01DX009 (ip), vehicle: saline with Tween-80); 102 % of control (dose: 5.0 mg/kg/injection, schedule: Q01DX009 (ip), vehicle: saline with Tween-80); 109 % of control (dose: 5.0 mg/kg/injection, schedule: Q01DX009 (ip), vehicle: saline); 104 % of control (dose: 10.0 mg/kg/injection, schedule: Q01DX009 (ip), vehicle: saline with Tween-80); 111 % of control and 117 % of control (dose: 10.0 mg/kg/injection, schedule: Q01DX009 (ip), vehicle: saline); 116 % of control (dose: 20.0 mg/kg/injection, schedule: Q01DX009 (ip), vehicle: saline with Tween-80). For the same compound, the T/C runs as follows: (dose: 20.0 mg/kg/injection, schedule: Q01DX009 (ip), vehicle: saline) 119 % of control; (dose: 40.0 mg/kg/injection, schedule: Q01DX009 (ip), vehicle: saline with Tween-80) 122 % of control.
`O=NN(CCBr)C(=O)NCCBr`: the T/C reads like this: (dose: 50.0 mg/kg/injection, schedule: Q01DX009 (ip), vehicle: gum acacia) 107 % of control; (dose: 66.0 mg/kg/injection, schedule: Q01DX009 (ip), vehicle: gum acacia) 109 % of control; (dose: 100.0 mg/kg/injection, schedule: Q01DX009 (ip), vehicle: gum acacia) 116 % of control.
Regarding `N#CC(C#N)=CN1CCCCCC1`, the T/C is 107 % of control (dose: 3.13 mg/kg/injection, schedule: Q01DX009 (ip), vehicle: saline with Tween-80); 93 % of control (dose: 3.13 mg/kg/injection, schedule: Q04DX003 (ip), vehicle: saline with Tween-80); 102 % of control (dose: 6.25 mg/kg/injection, schedule: Q01DX009 (ip), vehicle: saline with Tween-80); 97 % of control (dose: 6.25 mg/kg/injection, schedule: Q04DX003 (ip), vehicle: saline with Tween-80); 102 % of control (dose: 12.5 mg/kg/injection, schedule: Q01DX009 (ip), vehicle: saline with Tween-80); 100 % of control (dose: 12.5 mg/kg/injection, schedule: Q04DX003 (ip), vehicle: saline with Tween-80).
